Like-named read-outs stand apart in the source and are kept apart here.
Molecular target: T1, mouse TMEM16A mutant I640A (Mus musculus, UniProt Q8BHY3, I640A)
T1 construct: expressed in transfected cells; host or cells: HEK293T
T1 sequence (Q8BHY3 1-960 I640A): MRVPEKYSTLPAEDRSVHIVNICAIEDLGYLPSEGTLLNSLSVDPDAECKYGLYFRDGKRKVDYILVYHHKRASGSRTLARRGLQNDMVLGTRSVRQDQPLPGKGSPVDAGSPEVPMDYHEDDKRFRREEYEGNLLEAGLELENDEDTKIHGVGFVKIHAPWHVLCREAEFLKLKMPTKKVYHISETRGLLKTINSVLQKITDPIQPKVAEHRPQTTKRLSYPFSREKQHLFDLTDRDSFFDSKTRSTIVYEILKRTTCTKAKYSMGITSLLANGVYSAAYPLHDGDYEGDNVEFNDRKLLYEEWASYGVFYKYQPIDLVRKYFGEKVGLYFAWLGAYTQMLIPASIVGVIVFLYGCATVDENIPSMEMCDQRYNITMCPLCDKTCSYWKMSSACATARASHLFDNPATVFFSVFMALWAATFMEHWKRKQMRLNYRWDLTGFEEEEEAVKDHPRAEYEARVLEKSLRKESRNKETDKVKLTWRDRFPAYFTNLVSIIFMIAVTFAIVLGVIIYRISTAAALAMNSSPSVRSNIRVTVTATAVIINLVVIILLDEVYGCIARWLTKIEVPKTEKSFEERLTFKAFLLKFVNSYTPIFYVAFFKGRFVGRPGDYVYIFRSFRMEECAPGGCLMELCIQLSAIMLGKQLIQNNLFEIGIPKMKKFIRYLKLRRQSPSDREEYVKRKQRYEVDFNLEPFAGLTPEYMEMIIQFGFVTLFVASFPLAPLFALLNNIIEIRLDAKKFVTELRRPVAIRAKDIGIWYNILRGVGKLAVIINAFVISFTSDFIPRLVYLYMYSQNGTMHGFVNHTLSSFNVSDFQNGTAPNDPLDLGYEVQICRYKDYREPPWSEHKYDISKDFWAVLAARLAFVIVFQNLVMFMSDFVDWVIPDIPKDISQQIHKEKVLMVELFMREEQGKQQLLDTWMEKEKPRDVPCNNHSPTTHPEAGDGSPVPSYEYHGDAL
Test: Inside-out patch recording of 1PBC block, mutant I640A
Assay type: cell-based
Conditions: for remaining activity at 100 µM: 1PBC conc 100; for remaining activity at 100 µM / remaining activity at 3 µM / remaining activity at 10 µM / remaining activity at 30 µM: read-out: relative current in 1PBC (avr); for remaining activity at 3 µM: 1PBC conc 3; for remaining activity at 10 µM: 1PBC conc 10; for remaining activity at 30 µM: 1PBC conc 30
Method: HEK293T cells (ATCC CRL-1573) were maintained in Dulbecco’s modified Eagle’s medium (DMEM; Sigma-Aldrich) supplemented with 10 U ml^−1 penicillin, 0.1 mg ml^−1 streptomycin (Sigma-Aldrich), 2 mM L-glutamine (Sigma-Aldrich), and 10% FBS (Sigma-Aldrich) in a humidified atmosphere containing 5% CO2 at 37 °C. HEK293S GnTI^− cells (ATCC CRL-3022) were maintained in HyClone HyCell TransFx-H medium (GE Healthcare) supplemented with 10 U ml^−1 penicillin, 0.1 mg ml^−1 streptomycin, 4 mM L-glutamine, 0.15% poloxamer 188 (Sigma-Aldrich), and 1% FBS in an atmosphere containing 5% CO2 at 185 rpm at 37 °C. The ac splice variant of mouse TMEM16A (UniProt ID: Q8BHY3), mouse TMEM16B (UniProt ID: Q8CFW1), or mouse TMEM16F (UniProt ID: Q6P9J9) bearing a 3C cleavage site, a Venus YFP, a Myc tag, and a Streptavidin-binding peptide (SBP) downstream of the open reading frame in a modified pcDNA3.1 vector (Invitrogen) were used as described previously[21],[31]. Mutations were introduced using a modified QuikChange method[58] and were verified by sequencing.
HEK293T cells were transfected with 3–4 μg DNA per 6 cm Petri dish using the calcium phosphate co-precipitation method and were used within 24–96 h after transfection. Recordings were performed on inside-out patches excised from HEK293T cells expressing the construct of interest. Patch pipettes were pulled from borosilicate glass capillaries (O.D. 1.5 mm, I.D. 0.86 mm, Sutter Instrument) and were fire-polished with a microforge (Narishige) before use. Pipette resistance was typically 3–8 MΩ when filled with the recording solutions detailed below. Seal resistance was typically 4 GΩ or higher. Voltage-clamp recordings were made using Axopatch 200B, Digidata 1550, and Clampex 10.7 (Molecular Devices). Analog signals were filtered with the in-built 4-pole Bessel filter at 10 kHz and were digitized at 20 kHz. Solution exchange was achieved using a gravity-fed system through a theta glass pipette mounted on an ultra-fast piezo-driven stepper (Siskiyou). […] All recordings were performed at 20 °C.
A symmetrical ionic condition was used throughout. Stock solution with Ca^2+-EGTA contained 150 mM NaCl, 5.99 mM Ca(OH)2, 5 mM EGTA, and 10 mM HEPES at pH 7.40. Stock solution with EGTA contained 150 mM NaCl, 5 mM EGTA, and 10 mM HEPES at pH 7.40. Free Ca^2+ concentrations were adjusted by mixing the stock solutions at the required ratios calculated using the WEBMAXC program (http://web.stanford.edu/~cpatton/webmaxcS.htm). Patch pipettes were filled with the stock solution with Ca^2+-EGTA, which has a free Ca^2+ concentration of 1 mM. 1PBC (ChemBridge) stock was reconstituted in anhydrous DMSO (Sigma-Aldrich) at 100 mM and stored at −20 °C. Working solutions with 1PBC were prepared by serial dilution. Unless otherwise stated, experiments were performed at a saturating Ca^2+ concentration as shown in Supplementary Table 1 and the primary data were corrected for current rundown as described previously[21],[25].
Concentration-response relations, obtained from the ratio of the I-V plots before and after the application of the blocker, were fitted to the Hill equation,1 I/Imax=1/1+IC50/[blocker]^h where I/Imax is the normalized current responses, IC50 defines the concentration at which inhibition is at its half-maximum, and h is the Hill coefficient.

remaining activity at 100 µM (40 mV): 18.8% | IC50 (60 mV, 15 µM Ca2+): 23.1 µM | remaining activity at 3 µM (60 mV): 89% | remaining activity at 10 µM (60 mV): 69.4% | remaining activity at 30 µM (60 mV): 44.3% | remaining activity at 100 µM (60 mV): 17.7% | log-fold IC50 (change of mutant vs WT) (80 mV): 1.079 | IC50 (80 mV, 15 µM Ca2+): 22.1 µM | remaining activity at 3 µM (80 mV): 89.4% | remaining activity at 10 µM (80 mV): 67.9% | remaining activity at 30 µM (80 mV): 43% | remaining activity at 100 µM (80 mV): 17.7% | IC50 (100 mV, 15 µM Ca2+): 23.1 µM | remaining activity at 3 µM (100 mV): 91.3% | remaining activity at 10 µM (100 mV): 69.4% | remaining activity at 30 µM (100 mV): 43.1% | remaining activity at 100 µM (100 mV): 18% | IC50 (120 mV, 15 µM Ca2+): 24.9 µM | remaining activity at 3 µM (120 mV): 93.7% | remaining activity at 10 µM (120 mV): 71.5% | remaining activity at 30 µM (120 mV): 45% | remaining activity at 100 µM (120 mV): 17.7% | IC50 (140 mV, 15 µM Ca2+): 28.2 µM | remaining activity at 3 µM (140 mV): 96.5% | remaining activity at 10 µM (140 mV): 75.3% | remaining activity at 30 µM (140 mV): 47.6% | remaining activity at 100 µM (140 mV): 18.5% | IC50 (-20 mV, 15 µM Ca2+): 36.1 µM | remaining activity at 3 µM (-20 mV): 91.2% | remaining activity at 10 µM (-20 mV): 78.5% | remaining activity at 30 µM (-20 mV): 55.5% | remaining activity at 100 µM (-20 mV): 25.8% | IC50 (-40 mV, 15 µM Ca2+): 41.5 µM | remaining activity at 3 µM (-40 mV): 91.5% | remaining activity at 10 µM (-40 mV): 80.9% | remaining activity at 30 µM (-40 mV): 58.8% | remaining activity at 100 µM (-40 mV): 28.8% | IC50 (-60 mV, 15 µM Ca2+): 46.6 µM | remaining activity at 3 µM (-60 mV): 91.7% | remaining activity at 10 µM (-60 mV): 83.4% | remaining activity at 30 µM (-60 mV): 61.1% | remaining activity at 100 µM (-60 mV): 31.4% | IC50 (-80 mV, 15 µM Ca2+): 53 µM | remaining activity at 3 µM (-80 mV): 92.4% | remaining activity at 10 µM (-80 mV): 84.6% | remaining activity at 30 µM (-80 mV): 64.1% | remaining activity at 100 µM (-80 mV): 34.6% | IC50 (-100 mV, 15 µM Ca2+): 60.2 µM | remaining activity at 3 µM (-100 mV): 93.4% | remaining activity at 10 µM (-100 mV): 86.7% | remaining activity at 30 µM (-100 mV): 66.4% | remaining activity at 100 µM (-100 mV): 37.8% | IC50 (-120 mV, 15 µM Ca2+): 66 µM | remaining activity at 3 µM (-120 mV): 93.4% | remaining activity at 10 µM (-120 mV): 87.4% | remaining activity at 30 µM (-120 mV): 68.3% | remaining activity at 100 µM (-120 mV): 40.2% | IC50 (-140 mV, 15 µM Ca2+): 73.5 µM | remaining activity at 3 µM (-140 mV): 93.7% | remaining activity at 10 µM (-140 mV): 88.3% | remaining activity at 30 µM (-140 mV): 69.4% | remaining activity at 100 µM (-140 mV): 44% | IC50 (I640A, V 0 mV): 31.5 µM | IC50 (I640A, V 20 mV): 27.5 µM | IC50 (I640A, V 40 mV): 24.7 µM | IC50 (I640A, V 60 mV): 23.1 µM | IC50 (I640A, V 80 mV): 22.1 µM | IC50 (I640A, V 100 mV): 23.1 µM | IC50 (I640A, V 120 mV): 24.9 µM | IC50 (I640A, V 140 mV): 28.2 µM | IC50 (I640A, V -20 mV): 36.1 µM | IC50 (I640A, V -40 mV): 41.5 µM | IC50 (I640A, V -60 mV): 46.6 µM | IC50 (I640A, V -80 mV): 53 µM | IC50 (I640A, V -100 mV): 60.2 µM | IC50 (I640A, V -120 mV): 66 µM | IC50 (I640A, V -140 mV): 73.5 µM
SMILES: N#Cc1c(C(F)(F)F)cc(O)n2c1nc1ccccc12 [1PBC]

From PMC9120017, “Inhibition mechanism of the chloride channel TMEM16A by the pore blocker 1PBC” (Nature Communications, 2022)
